Reference: PMC10475017, “Design, synthesis, computational study and cytotoxic evaluation of some new quinazoline derivatives containing pyrimidine moiety” (Scientific Reports, 2023)

Columns and labels:
A549 cell line [1] = assay: Cell cycle analysis by PI flow cytometry; type: cell-based, human; settings: 72 h; for cell cycle S population: untreated cells 4.46%
Experimental: For this purpose, A549 cells were treated with two concentrations of 6n (10 and 15 μM) for 72 h (Fig. 6). […] A slight decrease in the G2/M population was also observed.
The effect of 6n was also assessed according to our previous protocol. Briefly, 1 × 10^5 A549 cells were seeded in a 24-well plate in […] complete cell culture media and after 24 h, were treated with two concentrations of 6n (10 and 15 μM). After 72 h, the cells were harvested and washed twice with cold 1X pbs and stabilized with cold ethanol (70%) in drop-wised manner while vortexing. After keeping one day in the freezer, the fixed cells were washed with 1X pbs and treated with a mixture of ribonuclease (10 µg/ml) (Sigma-Aldrich, Germany) to remove RNA, and Propidium Iodide (PI, 20 µg/ml) (Sigma-Aldrich, Germany) to stain DNA. The cells were acquired on BD FACS Calibur™ flow cytometry (BD Biosciences, San Jose, CA, USA). The data were analyzed with FlowJo software packages version 10.

A549 cell line [2] = assay: Annexin V/PI apoptosis detection by flow cytometry; type: cell-based, human; settings: 72 h
Experimental: Annexin V was applied to detect the phosphatidyl serin, which moved to outer membrane during apoptosis, and PI was used to distinguish live and dead cells.
After the incubation time, AnnexinV/PI staining using eBioscience™ Annexin V apoptosis detection kit (Invitrogen). The cells were gently harvested and washed once with 1X phosphate buffered saline (PBS), and once with 1000 μL 1X binding buffer. In the next step, the cells were suspended in 100 μL binding buffer containing 5 μL fluorescein isothiocyanate conjugated (FITC) Annexin V for 15 min and 5 μL Propodium Iodide (PI) solution. The cells were then acquired on BD FACS Calibur™ flow cytometry (BD Biosciences, San Jose, CA, USA) and apoptosis rates were calculated as the sum of early apoptosis and late apoptosis using Flowjo software.

Cn1c(=O)cc(Cl)n(Cc2nc3ccc(Br)cc3c(=O)n2-c2cccc(C#N)c2)c1=O [Compound 6b, 3-(6-Bromo-2-((6-Chloro-3-Methyl-2,4-Dioxo-3,4-Dihydropyrimidin-1(2H)-Yl)Methyl)-4-Oxoquinazolin-3(4H)-Yl) Benzonitrile] showed a melting point of 255 to 257 °C.
For Cn1c(=O)cc(Cl)n(Cc2nc3ccc(Br)cc3c(=O)n2-c2ccc(F)c(Cl)c2)c1=O [Compound 6n, 1-((6-Bromo-3-(3-Chloro-4-Fluorophenyl)-4-Oxo-3,4-Dihydroquinazolin-2-Yl)Methyl)-6-Chloro-3-Methylpyrimidine-2,4(1H,3H)-Dione], the “cell cycle S population” value (A549 cell line [1]; 10 μM) was 8.91%, the “cell cycle S population” value (A549 cell line [1]; 15 μM) was 11.6% and the “effect on cell cycle (in words)” value (A549 cell line [1]; 10 and 15 μM) was “could induce arrest at S-phase”. For the same compound, the “early apoptotic cells Q3 (Av pos/PI neg)” value (A549 cell line [2]; 5 µM) was 2.61%, the “late apoptotic cells Q2 (Av pos/PI pos)” value (A549 cell line [2]; 5 µM) was 21.2% and the “apoptotic death (sum of early and late apoptosis)” value (A549 cell line [2]; 15 µM) was 65.08%. The “induction of apoptosis (in words)” value (A549 cell line [2]; 5, 10, 15 µM) was “significantly induced apoptotic death in the dose dependent manner”.
Cn1c(=O)cc(Cl)n(Cc2nc3ccc(Br)cc3c(=O)n2-c2cccc(Cl)c2)c1=O [Compound 6d, 1-((6-Bromo-3-(3-Chlorophenyl)-4-Oxo-3,4-Dihydroquinazolin-2-Yl)Methyl)-6-Chloro-3-Methylpyrimidine-2,4(1H,3H)-Dione] gave a melting point of 259 to 260 °C.
Compound Cn1c(=O)cc(Cl)n(Cc2nc3ccc(Br)cc3c(=O)n2-c2ccc(Cl)cc2)c1=O [Compound 6g, 1-((6-Bromo-3-(4-Chlorophenyl)-4-Oxo-3,4-Dihydroquinazolin-2-Yl)Methyl)-6-Chloro-3-Methylpyrimidine-2,4(1H,3H)-Dione] has a melting point of 225 to 226 °C.
Compound Cn1c(=O)cc(Cl)n(Cc2nc3ccc(Br)cc3c(=O)n2-c2cccc(Br)c2)c1=O [Compound 6e, 1-((6-Bromo-3-(3-Bromophenyl)-4-Oxo-3,4-Dihydroquinazolin-2-Yl)Methyl)-6-Chloro-3-Methylpyrimidine-2,4(1H,3H)-Dione] has a melting point of 251 to 252 °C.
Compound Cn1c(=O)cc(Cl)n(Cc2nc3ccc(Br)cc3c(=O)n2-c2ccc(F)cc2)c1=O [Compound 6f., 1-((6-Bromo-3-(4-Fluorophenyl)-4-Oxo-3,4-Dihydroquinazolin-2-Yl)Methyl)-6-Chloro-3-Methylpyrimidine-2,4(1H,3H)-Dione] has a melting point of 240 to 242 °C.
Compound Cn1c(=O)cc(Cl)n(Cc2nc3ccc(Br)cc3c(=O)n2-c2cccc(F)c2)c1=O [Compound 6c, 1-((6-Bromo-3-(3-Fluorophenyl)-4-Oxo-3,4-Dihydroquinazolin-2-Yl)Methyl)-6-Chloro-3-Methylpyrimidine-2,4(1H,3H)-Dione] has a melting point of 243 to 244 °C.
For Cn1c(=O)cc(Cl)n(Cc2nc3ccc(Br)cc3c(=O)n2-c2ccccc2)c1=O [Compound 6a, 1-((6-Bromo-4-Oxo-3-Phenyl-3,4-Dihydroquinazolin-2-Yl)Methyl)-6-Chloro-3-Methylpyrimidine-2,4(1H,3H)-Dione], the melting point was 246 to 248 °C.
